In patent US7494997B2, “Amide derivative” (Nippon Shinyaku Co., Ltd., priority 2002, dated 2009):
Like-named read-outs stand apart in the source and are kept apart here.

Experiments:
K562 cells = assay: Cell growth inhibitory effect, K562 cells (WST-8, 72 hours); details: for IC50: read-out: K562 cells (IC50 value: μM); for Ratio (U937 cells/K562 cells): ratio of IC50 values U937 cells/K562 cells
U937 cells = assay: Cell growth inhibitory effect, U937 cells (WST-8, 72 hours); details: Homo sapiens, U-937, 72 h, read-out: U937 cells (IC50 value: μM)
[1] = BCR-ABL positive K562 cells, 72 hours, cell growth inhibition

| SMILES | melting point | IC50 (K562 cells; Homo sapiens, K562, 72 h) | IC50 (U937 cells) | IC50 (K562 cells; [1]) | Ratio (U937 cells/K562 cells) (K562 cells) |
| --- | --- | --- | --- | --- | --- |
| COc1cc(C(=O)Nc2ccc(C)c(Nc3nccc(-c4cccnc4)n3)c2)cc(OC)c1CN1CCN(C)CC1 [Example 25, 3,5-dimethoxy-4-(4-methylpiperazin-1-ylmethyl)-N-{4-methyl-3-[4-(3-pyridyl)pyrimidin-2-ylamino]phenyl}benzamide] | 201 to 214 °C (dec.) | 0.03 µM | 17 µM | – | 566.7 |
| COC(=O)c1cc(C(=O)Nc2ccc(C)c(Nc3nccc(-c4cccnc4)n3)c2)ccc1CN1CCN(C)CC1 [Example 39, 3-methoxycarbonyl-4-(4-methylpiperazin-1-ylmethyl)-N-{4-methyl-3-[4-(3-pyridyl)pyrimidin-2-ylamino]phenyl}benzamide] | 159 to 161 °C (dec.) | 0.035 µM | > 10 µM | – | >285.7 |
| Cc1ccc(NC(=O)c2ccc(CN3CCN(C)CC3)c(C(=O)N(C)C)c2)cc1Nc1nccc(-c2cccnc2)n1 [Example 26, 3-(N,N-dimethylcarbamoyl)-4-(4-methylpiperazin-1-ylmethyl)-N-{4-methyl-3-[4-(3-pyridyl)pyrimidin-2-ylamino]phenyl}benzamide] | 210 to 214 °C (dec.) | – | – | – | – |
| Cc1ccc(NC(=O)c2ccc(CN3CCN(C)CC3)c(Br)c2)cc1Nc1cncc(-c2cccnc2)n1 [Example 19, 3-bromo-4-(4-methylpiperazin-1-ylmethyl)-N-{4-methyl-3-[2-(3-pyridyl)pyrazin-6-ylamino]phenyl}benzamide] | – | 0.06 µM | 2.4 µM | – | 40.0 |
| Cc1ccc(NC(=O)c2ccc(CN3CCN(C)CC3)c(C(F)(F)F)c2)cc1Nc1nccc(-c2cncnc2)n1 [Example 6, 4-(4-methylpiperazin-1-ylmethyl)-3-trifluoromethyl-N-{4-methyl-3-[4-(5-pyrimidinyl)pyrimidin-2-ylamino]phenyl}benzamide] | 231 to 233 °C (dec.) | 0.0005 µM | 5.39 µM | – | – |
| CCN1CCN(Cc2ccc(C(=O)Nc3ccc(C)c(Nc4nccc(-c5cccnc5)n4)c3)cc2Br)CC1 (hydrate or solvate) [Example 27, 3-bromo-4-(4-ethylpiperazin-1-ylmethyl)-N-{4-methyl-3-[4-(3-pyridyl)pyrimidin-2-ylamino]phenyl}benzamide] | 202 to 203 °C | – | – | – | – |
| Cc1ccc(NC(=O)c2ccc(CN3CCNCC3)c(Br)c2)cc1Nc1nccc(-c2cncnc2)n1 [Example 36, 3-bromo-4-(1-piperazinylmethyl)-N-{4-methyl-3-[4-(5-pyrimidinyl)pyrimidin-2-ylamino]phenyl}benzamide] | – | – | – | 0.0041 µM | – |
| Cc1ccc(NC(=O)c2ccc(CN3CCN(C)CC3)c(Br)c2)cc1Nc1cc(-c2cccnc2)ccn1 [Example 14, 3-bromo-4-(4-methylpiperazin-1-ylmethyl)-N-{4-methyl-3-[4-(3-pyridyl)pyridin-2-ylamino]phenyl}benzamide] | 244 to 245 °C (dec.) | 0.003 µM | > 10 µM | – | >3333.3 |
| Cc1ccc(NC(=O)c2ccc(CN3CCN(C)CC3)c(Br)c2)cc1Nc1nncc(-c2cccnc2)n1 (hydrate or solvate) [Example 20, 3-bromo-4-(4-methylpiperazin-1-ylmethyl)-N-{4-methyl-3-[5-(3-pyridyl)-1,2,4-triazin-3-ylamino]phenyl}benzamide] | 219 to 221 °C | – | – | – | – |
| Cc1ccc(NC(=O)c2ccc(CN3C[C@@H](C)N[C@@H](C)C3)c(Br)c2)cc1Nc1nccc(-c2cccnc2)n1 [Example 34, 3-bromo-4-(cis-3,5-dimethylpiperazin-1-ylmethyl)-N-{4-methyl-3-[4-(3-pyridyl)pyrimidin-2-ylamino]phenyl}benzamide] | 204 to 205 °C | – | – | – | – |
| Cc1ccc(NC(=O)c2ccc(CN3CCN(C)CC3)c(Br)c2)cc1Nc1nccc(-c2cccnc2)n1 [Example 1, 3-bromo-4-(4-methylpiperazin-1-ylmethyl)-N-{4-methyl-3-[4-(3-pyridyl)pyrimidin-2-ylamino]phenyl}benzamide] | 202 to 203 °C (dec.) | 0.0022 µM | 4.8 µM | – | – |
| Cc1ccc(NC(=O)c2ccc(CN3CCN(C)CC3)c(C(F)(F)F)c2)cc1Nc1nccc(-c2cccnc2)n1 [Example 5, 4-(4-methylpiperazin-1-ylmethyl)-3-trifluoromethyl-N-{4-methyl-3-[4-(3-pyridyl)pyrimidin-2-ylamino]phenyl}benzamide] | 182 to 183 °C (dec.) | 0.0008 µM | 3.99 µM | – | – |
| Cc1ccc(NC(=O)c2ccc(CN3CCN(C)CC3)c(Br)c2)cc1Nc1nncc(-c2cccnc2)n1 [Example 20, 3-bromo-4-(4-methylpiperazin-1-ylmethyl)-N-{4-methyl-3-[5-(3-pyridyl)-1,2,4-triazin-3-ylamino]phenyl}benzamide] | – | 0.015 µM | 1.82 µM | – | 121.3 |
| CCCN1CCN(Cc2ccc(C(=O)Nc3ccc(C)c(Nc4nccc(-c5cccnc5)n4)c3)cc2Br)CC1 [Example 28, 3-bromo-4-[4-(n-propyl)piperazin-1-ylmethyl]-N-{4-methyl-3-[4-(3-pyridyl)pyrimidin-2-ylamino]phenyl}benzamide] | 204 to 205 °C | 0.00065 µM | 6.97 µM | – | 10723.1 |
| CS(=O)(=O)O.Cc1ccc(NC(=O)c2ccc(CN3CCN(C)CC3)c(C(F)(F)F)c2)cc1Nc1nccc(-c2cncnc2)n1 | 171 to 173 °C | – | – | – | – |
| Cc1ccc(NC(=O)c2ccc(CN3CCN(C)CC3)c(Br)c2)cc1Nc1cncc(-c2cccnc2)c1 (hydrate or solvate) [Example 17, 3-bromo-4-(4-methylpiperazin-1-ylmethyl)-N-{4-methyl-3-[3-(3-pyridyl)pyridin-5-ylamino]phenyl}benzamide] | 139 to 141 °C | – | – | – | – |
| Cc1ccc(NC(=O)c2ccc(CN3CCN(C)CC3)c(Br)c2)cc1Nc1cncc(-c2cccnc2)n1 (hydrate or solvate) [Example 19, 3-bromo-4-(4-methylpiperazin-1-ylmethyl)-N-{4-methyl-3-[2-(3-pyridyl)pyrazin-6-ylamino]phenyl}benzamide] | 192 to 193 °C | – | – | – | – |
| Cc1ccc(NC(=O)c2ccc(CN3CCN(C)CC3)c(Br)c2)cc1Nc1nccc(-c2ccc(Cl)nc2)n1 [Example 8, 3-bromo-4-(4-methylpiperazin-1-ylmethyl)-N-{3-[4-(6-chloropyridin-3-yl)pyrimidin-2-ylamino]-4-methylphenyl}benzamide] | 219 to 222 °C (dec.) | – | – | – | – |

More lines, main results first:

| melting point | IC50 (K562 cells; Homo sapiens, K562, 72 h) | IC50 (U937 cells) | IC50 (K562 cells; [1]) | SMILES | Ratio (U937 cells/K562 cells) (K562 cells) |
| --- | --- | --- | --- | --- | --- |
| 192 to 193 °C | 0.0053 µM | > 10 µM | – | Cc1cc(C(=O)Nc2ccc(C)c(Nc3nccc(-c4cccnc4)n3)c2)ccc1CN1CCN(C)CC1 [Example 21, 3-methyl-4-(4-methylpiperazin-1-ylmethyl)-N-{4-methyl-3-[4-(3-pyridyl)pyrimidin-2-ylamino]phenyl}benzamide] | >1886.8 |
| – | 0.0032 µM | 6.56 µM | – | Cc1ccc(NC(=O)c2ccc(CN3CCN(C)CC3)c([N+](=O)[O-])c2)cc1Nc1nccc(-c2cccnc2)n1 [Example 22, 4-(4-methylpiperazin-1-ylmethyl)-3-nitro-N-{4-methyl-3-[4-(3-pyridyl)pyrimidin-2-ylamino]phenyl}benzamide] | 2050.0 |
| 154 to 155 °C | 0.017 µM | > 10 µM | – | Cc1ccc(NC(=O)c2ccc(CN(C)C)c(Br)c2)cc1Nc1nccc(-c2cccnc2)n1 [Example 29, 3-bromo-4-(N,N-dimethylaminomethyl)-N-{4-methyl-3-[4-(3-pyridyl)pyrimidin-2-ylamino]phenyl}benzamide] | >588.2 |
| 184 to 187 °C | – | – | – | Cc1ccc(NC(=O)c2ccc(CN3CCN(C)CC3)c(C(F)(F)F)c2)cc1Nc1nccc(-c2cncc(Br)c2)n1.Cl | – |
| 185 to 187 °C (dec.) | – | – | – | Cc1ccc(NC(=O)c2ccc(CN3CCN(C)CC3)c(Br)c2)cc1Nc1nccc(-c2cccnn2)n1 [Example 12, 3-bromo-4-(4-methylpiperazin-1-ylmethyl)-N-{4-methyl-3-[4-(3-pyridazinyl)pyrimidin-2-ylamino]phenyl}benzamide] | – |
| – | – | – | 0.00093 µM | Cc1ccc(NC(=O)c2ccc(CN3CCNCC3)c(C(F)(F)F)c2)cc1Nc1nccc(-c2cncnc2)n1 [Example 38, 4-(1-piperazinylmethyl)-3-trifluoromethyl-N-{4-methyl-3-[4-(5-pyrimidinyl)pyrimidin-2-ylamino]phenyl}benzamide] | – |
| – | 0.00049 µM | 7.16 µM | – | CCN1CCN(Cc2ccc(C(=O)Nc3ccc(C)c(Nc4nccc(-c5cccnc5)n4)c3)cc2Br)CC1 [Example 27, 3-bromo-4-(4-ethylpiperazin-1-ylmethyl)-N-{4-methyl-3-[4-(3-pyridyl)pyrimidin-2-ylamino]phenyl}benzamide] | 14612.2 |
| 184 to 186 °C | – | – | – | Cc1ccc(NC(=O)c2ccc(CN3CCN(C)CC3)c([N+](=O)[O-])c2)cc1Nc1nccc(-c2cccnc2)n1 (hydrate or solvate) [Example 22, 4-(4-methylpiperazin-1-ylmethyl)-3-nitro-N-{4-methyl-3-[4-(3-pyridyl)pyrimidin-2-ylamino]phenyl}benzamide] | – |
| 184 to 186 °C (dec.) | – | – | – | Cc1ccc(NC(=O)c2ccc(CN3CCN(C)CC3)c(Br)c2)cc1Nc1nccc(-c2cncnc2)n1.Cl | – |
| 174 to 175 °C | – | – | – | Cc1ccc(NC(=O)c2ccc(CN3CCN(C)CC3)c(Br)c2)cc1Nc1cccc(-c2cccnc2)c1 [Example 18, 3-bromo-4-(4-methylpiperazin-1-ylmethyl)-N-{4-methyl-3-[3-(3-pyridyl)phenylamino]phenyl}benzamide] | – |
| 158 to 159 °C | – | – | – | Cc1ccc(NC(=O)c2ccc(CN3CCCCC3)c(Br)c2)cc1Nc1nccc(-c2cccnc2)n1 [Example 32, 3-bromo-4-(piperidinomethyl)-N-{4-methyl-3-[4-(3-pyridyl)pyrimidin-2-ylamino]phenyl}benzamide] | – |
